Measurements taken from patent US7402579B2, “Quinobenzoxazine analogs and compositions” (Cylene Pharmaceuticals, Inc., priority 2005, dated 2008).
Where two headings read alike, the source gives them in different places.

Experiments:
[1] = target: c-Myc template DNA (quadruplex); test: Quadruplex binding assay (STOP assay, Taq polymerase arrest, capillary electrophoresis); type: biochemical; conditions: concentration at which 50% of the DNA was arrested
Protocol: Generally, a 5′-fluorescent-labeled (FAM) primer (P45, 15 nM) was mixed with template DNA (15 nM) in a Tris-HCL buffer (15 mM Tris, pH 7.5) containing 10 mM MgCl2, 0.1 mM EDTA and 0.1 mM mixed deoxynucleotide triphosphates (dNTP's). In one example, the FAM-P45 primer (5′-6FAM-[…] CAATT-3′) (SEQ ID NO. 17) and the c-Myc template DNA (5′-[…] […] […]-3′) (SEQ ID NO. 18) were synthesized and HPLC purified by Applied Biosystems. The mixture was denatured at 95° C. for 5 minutes and, after cooling down to room temperature, was incubated at 37° C. for 15 minutes.
After cooling down to room temperature, 1 mM […] and the test compound (various concentrations) were added and the mixture incubated for 15 minutes at room temperature. The primer extension was performed by adding 10 mM KCl and Taq DNA Polymerase (2.5 U/reaction, Promega) and incubating at 70° C. for 30 minutes. The reaction was stopped by adding 1 μl of the reaction mixture to 10 μl Hi-Di Formamide mixed and 0.25 μl LIZ120 size standard. Hi-Di Formamide and LIZ120 size standard were purchased from Applied Biosystems. The partially extended quadruplex arrest product was between 61 or 62 bases long and the full-length extended product was 99 bases long. The products were separated and analyzed using capillary electrophoresis. Capillary electrophoresis was performed using an ABI PRISM 3100-Avant Genetic Analyzer. The assay was performed using compounds described above, and μM concentrations reported in Table 1 (Tables 1A-1F) are concentrations at which 50% of the DNA was arrested in the assay (i.e., the ratio of shorter partially extended DNA (arrested DNA) to full-length extended DNA is 1:1).
Stop Assays. Stop assays are high throughput, first-pass screens for detecting drugs that bind to and stabilize the target G-quadruplex. Generally, DNA template oligonucleotide is created, which contains the nucleotide sequence of the “target” quadruplex against which drug screening is desired. A fluorescently labeled primer DNA is then annealed to the 3′ end of the template DNA. A DNA polymerase such as Taq polymerase is then introduced to synthesize a complementary strand of DNA by extending from the fluorescently labeled primer. When the progress of the Taq polymerase is unhindered, it synthesizes a full-length copy of the template. […] If, however, the test drug selectively binds to and stabilizes the quadruplex, the progress of polymerase arrests only at the quadruplex, and a characteristic “Stop Product” is synthesized.
These products are visualized by capillary electrophoresis.

HCT-116 cells = test: MTS cell proliferation/cytotoxicity assay, HCT-116; type: cell-based; conditions: Homo sapiens
Protocol: (§1) The antiproliferative effects of the present compounds may be tested using a cell proliferation and/or cytotoxicity assay, following protocols described below.
(§2) MTS assays. Antiproliferative effects of anticancer drugs are tested by the CellTiter 96 AQueous assay (Promega, Wis.), which is a colorimetric assay for determining the number of viable cells. (See, e.g., Wang, L., et al., Methods Cell Sci (1996) 18:249-255).
(§3) Generally, cells (2,000 to 5,000 cells/well) are seeded on 96 well flat bottom plates (Corning, N.Y.) in 100 μl of culture medium without any anticancer drug on day 0, and the culture medium is exchanged for that contained anticancer drugs at various concentrations on day 1. After incubation for 3 days under normal growth conditions (on day 4), the monolayers are washed once in PBS, and the medium is switched to 100 μl of PBS in each of the 96 well plate. After mixing MTS and PMS at the ratio of 20:1, 20 μl of MTS/PMS solution is added to each of the 96 well plate and incubated for 4 hours in a humidified atmosphere of 5% CO2 at 37° C. The absorbance was read at 490 nm using FLUOstar Galaxy 96 well plate reader (BMG Labtechnologies, Germany).

HeLa cells = test: MTS cell proliferation/cytotoxicity assay, Hela; type: cell-based; conditions: Homo sapiens
Protocol: as §1
Cell culture. Human cervical epithelial cells (HeLa cells) are obtained from American Type Culture Collection (Manassas, Va.). Cells are grown in Eagle's minimum essential medium (MEM, Hyclone, Utah) supplemented with 2 mM Glutamine, 0.1 mM nonessential amino acid, 1 mM Na Pyruvate, 1.5 g/L NaHCO3, 50 mg/L gentamicin, and 10% fetal bovine serum (Hyclone, USA) in a humidified atmosphere of 5% CO2 at 37° C.
as §2, §3

Row | Compound | IC50 ([1]; Table 1B, read-out: STOP IC50) | IC50 (HCT-116 cells; Table 1B) | IC50 (HeLa cells; Table 1B) | IC50 (HCT-116 cells; Table 1A) | IC50 (HeLa cells; Table 1A) | also measured
1 | CC1CCN(C(=O)c2cn3c4c(c(NCCN5CCOCC5)c(F)cc4c2=O)Oc2ccccc2-3)CC1 [Example 55] | – | – | – | – | – | IC50 ([1]; Table 1E, read-out: STOP Data): > 15 µM
2 | CN1CCCC1CCNC(=O)c1cn2c3c(c(N4CCC(c5cnccn5)C4)c(F)cc3c1=O)Oc1ccc(C#N)cc1-2 (stereo not drawn) | – | – | – | 0.4 µM | 1.2 µM | –
3 | CN1CCCC1CCNC(=O)c1cn2c3c(c(N4CCC(c5cnccn5)C4)c(F)cc3c1=O)Oc1ccccc1-2 (stereo not drawn) [Example 81] | – | – | – | – | – | IC50 ([1]; Table 1E, read-out: STOP Data): 5.7 µM
4 | CN1CCCC1CCNC(=O)c1cn2c3c(c(N4CCC(c5cnccn5)C4)c(F)cc3c1=O)Oc1ccc(C(N)=O)cc1-2 (stereo not drawn) | – | – | – | 3.6 µM | 11 µM | –
5 | CN1CCCC1CCNC(=O)c1cn2c3c(cc(SCc4ccccc4)cc3c1=O)Oc1cc3ccccc3cc1-2 (stereo not drawn) | 14 µM | 3.9 µM | 5.2 µM | – | – | –
6 | N#Cc1ccc2c(c1)-n1cc(C(=O)NCCN3CCCC3)c(=O)c3cc(F)c(N4CCC(c5cnccn5)C4)c(c31)O2 (stereo not drawn) | – | – | – | 0.031 µM | 0.21 µM | IC50 ([1]; Table 1A, read-out: STOP IC50): 5 µM
7 | N#Cc1ccc2c(c1)-n1cc(C(=O)NCCN3CCOCC3)c(=O)c3cc(F)c(N4CCC(N)C4)c(c31)O2 (stereo not drawn) | – | – | – | 0.4 µM | 0.68 µM | –
8 | Cc1cc(CSc2cc3c4c(c2)c(=O)c(C(=O)NCCC2CCCN2C)cn4-c2cc4ccccc4cc2O3)no1 (stereo not drawn) | 5.4 µM | 2.9 µM | 2.3 µM | – | – | –
9 | CC(C)N1CCN(c2c(F)cc3c(=O)c(C(=O)NCCN4CCCC4)cn4c3c2Oc2ccc(C#N)cc2-4)CC1 | – | – | – | 0.03 µM | 0.04 µM | IC50 ([1]; Table 1A, read-out: STOP IC50): 10 µM
10 | CC(=O)N1CCN(c2cc3c(=O)c(C(=O)NCCN4CCCC4)cn4c3c(c2F)Oc2cc(Cl)ccc2-4)CC1 | – | – | – | – | – | IC50 ([1]; Table 1C, read-out: STOP IC50): 6 µM

Further lines, with some results ahead:

Row | IC50 ([1]; Table 1B, read-out: STOP IC50) | Compound | IC50 (HCT-116 cells; Table 1B) | IC50 (HeLa cells; Table 1B) | IC50 (HCT-116 cells; Table 1A) | IC50 (HeLa cells; Table 1A) | also measured
11 | 2.9 µM | CN1CCCC1CCNC(=O)c1cn2c3c(cc(SCc4ccncc4)cc3c1=O)Oc1cc3ccccc3cc1-2 (stereo not drawn) | 4.2 µM | 4.1 µM | – | – | –
12 | 10 µM | CN1CCCC1CCNC(=O)c1cn2c3c(cc(SCCc4cnccn4)cc3c1=O)Oc1ccccc1-2 (stereo not drawn) | 3.8 µM | 3 µM | – | – | –
13 | 3.8 µM | CN1CCCC1CCNC(=O)c1cn2c3c(cc(SCc4ccccn4)cc3c1=O)Oc1cc3ccccc3cc1-2 (stereo not drawn) | 3.1 µM | 2.5 µM | – | – | –
14 | 3.4 µM | CN1CCCC1CCNC(=O)c1cn2c3c(cc(SCCc4cnccn4)cc3c1=O)Oc1cc3ccccc3cc1-2 (stereo not drawn) | 10 µM | 1.8 µM | – | – | –
15 | 3.9 µM | O=C(NCCN1CCCC1)c1cn2c3c(cc(SCCc4cnccn4)cc3c1=O)Oc1cc3ccccc3cc1-2 | 2.8 µM | 0.28 µM | – | – | –
